Experimental data: patent US5902794A (priority 1997, dated 1999)
Read-outs that look alike come from different tables or passages of the source.

What was measured:
[1] = system: cultured human fibroblasts; conditions: cited from earlier work
[2] = system: leukemic cell lines (HL-60, K-562, myc-K562, Molt-4); experiment: growth inhibition and viability of leukemic cell lines; format: cell-based, human; conditions: for growth inhibitory effect: alone; for enhancement of the analog effect: in combination with the analogue
[3] = system: hormone-independent breast and colon cancer cell lines; experiment: growth inhibition of hormone-independent breast and colon cancer lines; format: cell-based, human; conditions: for growth inhibitory effect: alone; for enhancement of the effect of the site-selective compounds: in combination with the site-selective compounds
Protocol: (§1) All breast cancer cell lines were grown in IMEM supplemented with 10% fetal bovine serum, 20 mM HEPES, penicillin-streptomycin, and extra glutamine. Colon carcinoma cell lines were grown in EMEM supplemented with 10% FBS, EMEM, NEAA, HEPES 20 mM, extra glutamine, and penicillin-streptomycin. The cells were grown at 37° C. in humidified incubators in an atmosphere of 5% CO2.
(§2) For cell growth experiments, 2-3×10^5 cells/60 mm dish were seeded, and 24 hours later (Day 0), the medium was removed, and fresh medium and the additives were added then and every 48 hours thereafter The compounds of the present invention were added using 100× concentrated stock solutions. At desired times, cell counts in duplicate were performed on a Coulter counter after harvesting the cells with gentle trypsinization.

cells = experiment: growth inhibition by 8-Cl-AMP; format: cell-based; conditions: as high as 100 microM
[4] = system: MCF-7 ras breast cancer cell line; experiment: synergistic growth inhibition by C-6 and C-8 analogue combination; format: cell-based; conditions: Homo sapiens, MCF7, alone, read-out: percentage growth inhibition of analogue added alone
Protocol: as §1, §2
Synergism quotient was defined as the net growth inhibitory effect of the analogue combination divided by the sum of the net analogue effects on growth inhibition A quotient of >1 indicates a synergistic effect, while a quotient of <1 indicates an antagonistic effect.
Synergism of growth inhibition was determined by treatment of
cells with C-6 analogues and C-8 analogues alone and in combination at
Day 0 and Day 2 and counting the cell number at Day 4

[5] = system: breast and colon cancer cells; experiment: effect on cell morphology; format: cell-based, human
From the text: The photographs were taken on Day 4, ×160.
Furthermore, the synergistic growth inhibitory effect of C-6 and C-8 analogue combinations was also reflected in the change in the cell morphology.

R^I receptor = conditions: cited from earlier work
R^II = conditions: cited from earlier work
[6] = system: R^I cAMP receptor protein (MDA-MB-231); experiment: photoaffinity labelling of R^I cAMP receptor protein, MDA-MB-231; format: cell-based, human; conditions: 10 microM, 3 days; control 1.0
Protocol: (§3) M is marker proteins of known molecular weight.
(§4) The incubations were carried out at 23° C. for 60 minutes in 96-well immunoplates. The reaction mixtures were then irradiated for 30 seconds at 254 nm, placing a Mineralite UVS-11 hand lamp directly onto the plate. The samples were mixed with 25 microliters of 3× sample buffer (3% SDS, 15% beta-mercaptoethanol, 30 mM Tris, 30% glycerol, 1% bromophenol blue saturated solution), boiled for 3 minutes, and centrifuged at 700×g for five minutes. The samples containing 50-100 micrograms of protein were subjected to 0.05% SDS-12% PAGE. The gels were fixed, dried, and exposed to X-ray films overnight. The protein concentrations were determined by the method of Lowry et al., (J. Biol. Chem. 193: 265-275, 1951) with bovine serum albumin as standard.
(§5) The levels of the receptor proteins are expressed relative to the R^I level in the untreated control cells of MDA-MB-231 and LS-174T, which are each set equal to 1.0 O.D.; the scale was expanded to differentiate the lower intensity bands.

MDA-MB-231 = experiment: growth of MDA-MB-231 cells; format: cell-based; conditions: Homo sapiens, MDA-MB-231, 72 h; 10 microM, 3 days
Protocol: as §3, §1, §2

[7] = system: breast and colon cancer cell lines; experiment: cell cycle progression of breast and colon cancer cell lines; format: cell-based, human; conditions: vs untreated control cells
Protocol: DNA histograms were generated on FACS II by using the DNA intercalating dye propidium iodide as described by Braylan et al. (Cytometry 2: 337-343, 1982). The percentage of cells in each cycle phase was calculated by using a PDP-11/34 computer and software as described by Neckers et al. (Mol. Cell. Biol. 6: 4244-4250, 1986).
A determination was made whether the reduced cell proliferation observed in the cancer cell lines after treatment with the compounds of the present invention is due to a specific block in one phase of the cell cycle.

[8] = system: R^II cAMP receptor protein (MDA-MB-231); experiment: photoaffinity labelling of R^II cAMP receptor protein, MDA-MB-231; format: cell-based, human; conditions: 10 microM, 3 days; relative to control R^I
Protocol: as §3, §4, §5

LS-174T = experiment: growth of LS-174T cells; format: cell-based; conditions: Homo sapiens, LS174T, 72 h; 10 microM, 3 days
Protocol: as §3, §1, §2

[9] = system: R^I cAMP receptor protein (LS-174T); experiment: photoaffinity labelling of R^I cAMP receptor protein, LS-174T; format: cell-based, human; conditions: 10 microM, 3 days; control 1.0
Protocol: as §3, §4, §5

[10] = system: R^I and R^II cAMP receptor proteins in breast (MDA-MB-231) and colon (LS-174T) cancer cells; experiment: R^I and R^II cAMP receptor protein levels in breast and colon cancer lines (FIG. 6); format: cell-based, human
Protocol: as §3, §4

[11] = system: R^II cAMP receptor protein (LS-174T); experiment: photoaffinity labelling of R^II cAMP receptor protein, LS-174T; format: cell-based, human; conditions: 10 microM, 3 days; relative to control R^I
Protocol: as §3, §4, §5

[12] = system: hormone-dependent breast cancer lines; conditions: millimolar concentrations; previously reported; cited from earlier work
[13] = system: breast (MCF-7) and (LS-174T) colon cancer cell lines; experiment: growth inhibition of breast (MCF-7) and colon (LS-174T) cancer cell lines; format: cell-based, human; conditions: 50 micromolar
[14] = system: disseminated neuroblastomas; conditions: in a combined drug regimen; cited from earlier work
YAC lymphoma cell = conditions: mouse, in vivo; cited from earlier work

Question: With CC(C)Cn1c(=O)n(C)c(=O)c2[nH]cnc21 [1-methyl-3-isobutylxanthine] as the compound, how does the DNA synthesis ([1]; added during first eight hours after serum addition) read?
Answer: subsequent DNA synthesis was not delayed

Question: And the DNA synthesis ([1]; added more than eight hours after serum addition)?
Answer: inhibitory

Question: What about the growth inhibitory effect ([2]; 0.5 mmol/L) of the same compound?
Answer: little or no growth inhibitory effect

Question: And the “enhancement of the analog effect” value [2]?
Answer: could not enhance the analog effect

Question: And the growth inhibitory effect ([3]; 0.5 mM)?
Answer: little or no growth inhibitory effect

Question: And the “enhancement of the effect of the site-selective compounds” value [3]?
Answer: could not enhance the effect

Question: Which growth inhibition (cells) does the source give for Nc1ncnc2c1nc(Cl)n2[C@@H]1O[C@H](COP(=O)(O)O)[C@@H](O)[C@H]1O [8-Cl-AMP] here?
Answer: no appreciable growth inhibition

Question: With Nc1ncnc2c1nc(Br)n2[C@@H]1O[C@@H]2COP(=O)(O)O[C@H]2[C@H]1O [8-bromo-cAMP] as the compound, how does the “potency relative to 8-Cl-cAMP, times less potent” value [2] read?
Answer: 5 to 20 times

Question: What does the source list for CNc1nc2c(N)ncnc2n1[C@@H]1O[C@@H]2COP(=O)(O)O[C@H]2[C@H]1O [8-methylamino-cAMP]?
Answer: potency relative to 8-Cl-cAMP, times less potent [2]: 5 to 20 times; inhibition at 1 µM [4]: 10%

Question: Which morphological change ([5]; 100 microM, three to four days) does the source give for CSc1nc2c(N)ncnc2n1[C@@H]1O[C@@H]2COP(=O)(O)O[C@H]2[C@H]1O [8-methylthio-cAMP] here?
Answer: induced the morphological change

Question: What about the “potency relative to 8-Cl-cAMP, times less potent” value [2] of the same compound?
Answer: 5 to 20 times

Question: And the inhibition at 1 µM [4]?
Answer: 15%

Question: For Nc1ncnc2c1nc(N1CCCCC1)n2[C@@H]1O[C@@H]2COP(=O)(O)O[C@H]2[C@H]1O [8-piperidino-cAMP, reference compound], which “site selectivity of binding, R^I” value (R^I receptor) is on record?
Answer: binds to site 2

Question: And the “site selectivity of binding, R^II” value (R^II)?
Answer: selectively binds to site 1

Question: With O=C(Nc1ncnc2c1ncn2[C@@H]1O[C@@H]2COP(=O)(O)O[C@H]2[C@H]1O)c1ccccc1 [N^6 -benzoyl-cAMP] as the compound, how does the inhibition at 0.5 µM [4] read?
Answer: 10%

Question: For O=P1(O)OC[C@H]2O[C@@H](n3cnc4c(NCc5ccccc5)ncnc43)[C@H](O)[C@@H]2O1 [N^6 -benzyl-cAMP], which morphological change ([5]; 0.5 microM alone, four days) is on record?
Answer: did not induce a change in the cell morphology

Question: And the morphological change ([5]; 50 microM, three to four days)?
Answer: induced the morphological change

Question: And the “R^I relative level” value [6]?
Answer: 0.25 ± 0.03

Question: And the activity at 10 µM (MDA-MB-231)?
Answer: 55%

Question: What about the “fractions of cells in G1, S and G2/M phases, in words” value [7] of the same compound?
Answer: not appreciably different

Question: And the “R^II relative level” value [8]?
Answer: 0.07 ± 0.01

Question: What about the activity at 10 µM (LS-174T) of the same compound?
Answer: 35%

Question: And the “R^I relative level” value [9]?
Answer: 0.20 ± 0.02

Question: What about the “increase in the ratio of R^II to R^I” value ([10]; densitometry) of the same compound?
Answer: two- to three-fold increase

Question: What about the “48,000 R^I receptor protein, in words” value ([10]; three days, 10 microM) of the same compound?
Answer: concomitant decrease

Question: And the “52,000 MW (R^II) receptor protein, in words” value ([10]; three days, 10 microM)?
Answer: increased appreciably

Question: And the “R^II relative level” value [11]?
Answer: 0.25 ± 0.02

Question: What about the inhibition at 0.5 µM [4] of the same compound?
Answer: 15%

Question: For CCCC(=O)Nc1ncnc2c1ncn2[C@@H]1O[C@@H]2COP(=O)(O)O[C@H]2[C@H]1O [N^6 -butyryl cAMP], which “growth inhibition, hormone-dependent breast cancer lines” value [12] is on record?
Answer: growth inhibition only in the hormone-dependent breast cancer lines

Question: For O=P1(O)OC[C@H]2O[C@@H](n3c(Sc4ccc(Cl)cc4)nc4c(Nc5ccccc5)ncnc43)[C@H](O)[C@@H]2O1 [N^6-phenyl-8-p-chlorophenylthio-cAMP], which “growth inhibition, in words” value [13] is on record?
Answer: most potent growth inhibition among the C-6,-8 disubstituted analogues

Question: With COc1ccc(Cc2nccc3cc(OC)c(OC)cc23)cc1OC [papaverine] as the compound, how does the clinical result [14] read?
Answer: promising results

Question: Which growth inhibitory effect ([2]; 0.1 mmol/L) does the source give for Cn1c(=O)c2[nH]cnc2n(C)c1=O [theophylline] here?
Answer: little or no growth inhibitory effect

Question: What about the “enhancement of the analog effect” value [2] of the same compound?
Answer: could not enhance the analog effect

Question: And the growth inhibitory effect ([3]; 0.1 mM)?
Answer: little or no growth inhibitory effect

Question: What about the “enhancement of the effect of the site-selective compounds” value [3] of the same compound?
Answer: could not enhance the effect

Question: With cholera toxin as the compound, how does the “inhibition of YAC lymphoma cell proliferation” value (YAC lymphoma cell) read?
Answer: almost complete inhibition
